Calls of active or inactive are those of the source.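 Rule for the calls: active = IC50 no higher than ten times the top tested dose; inconclusive = flat fit with 30 to 70% inhibition, or poor fit; inactive = IC50 above ten times the top dose.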

These results are taken from PubChem BioAssay AID1224920 (Broad Institute, 2016).

The test is described as follows: growth modulation of Clostridium difficile isolate – OD600, 9-point, retest, dose response (AID 1224920).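 Note: plate controls were DMSO for no effect and levofloxacin control for full effect; inhibitors lower culture turbidity so OD600 falls.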 The following applies: Clostridium difficile clinical isolate growth, OD600, 24 h.

`COc1ccc2c3c([nH]c2c1)[C@H](CO)N(C(=O)c1ccccc1)CC31CN(C(=O)Nc2cccc(F)c2)C1`: the activity change, negative = inhibition (at 120 µM (top of the series)) is 39% (inactive).

`O=C(c1ccc2c(c1)OCO2)N1C[C@@H]2N[C@H](C1)C2c1ccc(-c2ccccc2F)cc1` (stereo partly specified): the activity change, negative = inhibition (at 68 µM (top of the series)) was 31.1% (inactive). As to `O=S(=O)(c1cccc(F)c1)N1CC[C@@H]2[C@@H](CO)Nc3ccc(-c4cccc(F)c4)cc3[C@@H]21`, the activity change, negative = inhibition (at 120 µM (top of the series)) was 45.7% (inactive). For `C[C@H]1CN([C@@H](C)CO)C(=O)c2cccc(NC(=O)Nc3ccc(C(F)(F)F)cc3)c2O[C@@H]1CN(C)C(=O)Nc1ccc(C(F)(F)F)cc1`, under “at 135 µM (top of the series)”, the activity change, negative = inhibition was 33.9% (inactive).

Take `O=C(Nc1ccccc1F)N1C[C@@H]2N[C@H](C1)C2c1ccc(-c2ccccc2)cc1` (stereo partly specified): under “at 120 µM (top of the series)”, the activity change, negative = inhibition is 36.7% (inactive). The same measure, in the same setting: in the case of `CC(=O)N(C)C[C@H]1[C@H](c2ccc(-c3ccccc3F)cc2)[C@@H](CO)N1C(C)=O` it was -11.8% (inactive); in that of `O=C(Nc1cccc(F)c1)N1CCCCN2[C@H](CO)[C@@H](c3ccc(-c4ccccc4F)cc3)[C@@H]2C1`, 39.6% (inactive); in that of `O=C(c1cccc(F)c1)N1CC[C@@H]2[C@@H](CO)Nc3ccc(C#Cc4ccc(F)cc4)cc3[C@@H]21`, 38.1% (inactive). Consider `COc1ccc2c3c(n(C)c2c1)[C@@H](CO)N(C(=O)C1CC1)CC31CN(C(=O)Nc2cccc(F)c2)C1`, for which the activity change, negative = inhibition (at 120 µM (top of the series)) was 18.8% (inactive). On the same count and under the same terms, in the case of `CC(=O)N1[C@@H](CO)[C@H](c2ccccc2)[C@@H]1CN(C)C(=O)CN1CCOCC1` it was -5.04% (inactive); in that of `CC(=O)N(C)C[C@H]1[C@H](c2ccc(-c3ccccc3F)cc2)[C@H](CO)N1C(C)=O`, -3.85% (inactive). On to `O=C(Nc1ccccc1F)N1C[C@@H]2N[C@H](C1)C2c1ccc(-c2cccc(F)c2)cc1` (stereo partly specified), for which, for the setting “at 60 µM (top of the series)”, the activity change, negative = inhibition is 33.4% (inactive). Turning to `CC(=O)N1[C@H](CO)[C@@H](c2ccccc2)[C@@H]1CN(C)C(=O)CN1CCOCC1`, the activity change, negative = inhibition (at 120 µM (top of the series)) is -9.56% (inactive). On to `Cc1ccc(S(=O)(=O)Nc2cccc3c2O[C@@H](CN(C)S(=O)(=O)c2ccccc2)[C@H](C)CN([C@H](C)CO)C3=O)cc1`, for which the activity change, negative = inhibition (at 120 µM (top of the series)) was -24.7% (inactive). Same read-out and setting: in the case of `CC(=O)N1[C@H](CN(C)C(=O)CN2CCOCC2)[C@@H](c2ccccc2)[C@@H]1CO` it was -1.26% (inactive); in that of `COc1ccc2c3c(n(C)c2c1)[C@H](CO)N(C(=O)c1cccnc1)CC31CCN(C(=O)c2cccnc2)CC1`, 0.941% (inactive). For the compound `Cc1cccc(-c2ccc(C3[C@@H]4CN(C(=O)Cc5ccncc5)C[C@H]3N4)cc2)c1` (stereo partly specified), for the setting “at 60 µM (top of the series)”, the activity change, negative = inhibition was 39.4% (inactive). On to `O=S(=O)(c1ccc(F)cc1)N1CCCCN2[C@@H](CO)[C@@H](c3ccc(-c4ccccc4)cc3)[C@@H]2C1`, for which, under “at 120 µM (top of the series)”, the activity change, negative = inhibition is 0.278% (inactive). As for `C/C=C/c1ccc([C@H]2[C@H](CO)N(C(=O)CC)[C@H]2CNC(=O)CC)cc1`, the activity change, negative = inhibition (at 135 µM (top of the series)) was -9.32% (inactive). Regarding `CCCNC(=O)N1CC[C@H]2[C@@H]1c1cc(C#Cc3ccccc3)ccc1N(C)[C@H]2CO`, the activity change, negative = inhibition (at 60 µM (top of the series)) was 49.3% (inactive). With `COc1ccc(NC(=O)N2C[C@@H]3N[C@H](C2)C3c2ccc(-c3cccc(OC)c3)cc2)cc1` (stereo partly specified), the activity change, negative = inhibition (at 60 µM (top of the series)) is 28.8% (inactive). Take `CC(=O)N(C)C[C@@H]1[C@@H](c2ccc(-c3ccccc3F)cc2)[C@@H](CO)N1C(C)=O`: the activity change, negative = inhibition (at 135 µM (top of the series)) was -15.6% (inactive). For `N#Cc1cccc(-c2ccc(C3[C@@H]4CN(Cc5cocn5)C[C@H]3N4)cc2)c1` (stereo partly specified), where the note is “at 120 µM (top of the series)”, the activity change, negative = inhibition was 39.4% (inactive). On to `O=S(=O)(c1ccc(F)cc1)N1CCCCN2[C@H](CO)[C@H](c3ccc(-c4ccccc4)cc3)[C@H]2C1`, for which the activity change, negative = inhibition (at 120 µM (top of the series)) is 39.2% (inactive). Turning to `O=C(C1CCCCC1)N1CC(=O)N2[C@@H](CO)[C@H](c3ccc(C#CCc4ccccc4)cc3)[C@@H]2C1`, where the note is “at 60 µM (top of the series)”, the activity change, negative = inhibition is 21.9% (inactive). `O=C(Nc1ccccc1)N1CCCCN2[C@H](CO)[C@H](c3ccc(-c4ccccc4F)cc3)[C@H]2C1`: for the setting “at 30 µM (top of the series)”, the activity change, negative = inhibition is 38.6% (inactive). For the compound `CN1c2ccc(Br)cc2[C@@H]2[C@@H](CCN2C(=O)Nc2ccc(F)cc2)[C@H]1CO`, the activity change, negative = inhibition (at 120 µM (top of the series)) is 127% (inactive). Turning to `COc1ccc(-c2ccccc2[C@@H]2[C@@H](C#N)N(C(=O)NC3CCCC3)[C@H]2CO)cc1`, the activity change, negative = inhibition (at 68 µM (top of the series)) is -5% (inactive). As for `N#Cc1ccc(-c2ccc(C3[C@H]4CNC[C@@H]3N4C(=O)Nc3ccc(Cl)cc3)cc2)cc1` (stereo partly specified), where the note is “at 135 µM (top of the series)”, the activity change, negative = inhibition is 25.9% (inactive). For `CN1c2ccc(-c3cccc(F)c3)cc2[C@H]2[C@H](CCN2C(=O)C2CCCC2)[C@H]1CO`, the activity change, negative = inhibition (at 120 µM (top of the series)) is 40.6% (inactive).

On to `C[C@H]1CN([C@@H](C)CO)C(=O)c2cccc(NC(=O)c3nc4ccccc4s3)c2O[C@H]1CN(C)S(=O)(=O)c1ccc(F)cc1`, for which the activity change, negative = inhibition (at 60 µM (top of the series)) was 0.765% (inactive).

For the compound `COc1ccc2c3c(n(C)c2c1)[C@@H](CO)N(C(=O)c1ccncc1)CC31CN(C)C1`, the activity change, negative = inhibition (at 120 µM (top of the series)) was 3.53% (inactive).

Take `CN1c2ccc(-c3cccc(F)c3)cc2[C@@H]2[C@@H](CCN2C(=O)Cc2ccccc2)[C@@H]1CO`: the activity change, negative = inhibition (at 135 µM (top of the series)) was 52.8% (inactive).

Consider `COc1ccc(-c2ccccc2[C@@H]2[C@@H](C#N)N(C(=O)NC3CCCCC3)[C@H]2CO)cc1`, for which, for the setting “at 120 µM (top of the series)”, the activity change, negative = inhibition is 9.48% (inactive). Turning to `CCC(=O)N1CC(=O)N2[C@H](CO)[C@@H](c3ccc(C#CC4CCCCC4)cc3)[C@@H]2C1`, the activity change, negative = inhibition (at 30 µM (top of the series)) was -9.02% (inactive). `N#Cc1cccc(-c2ccc(C3[C@H]4CNC[C@@H]3N4C(=O)Nc3ccc(F)cc3)cc2)c1` (stereo partly specified): the activity change, negative = inhibition (at 68 µM (top of the series)) is 21.6% (inactive).

On to `CC(=O)N1[C@@H](CO)[C@@H](c2ccccc2)[C@@H]1CN(C)C(=O)CN1CCOCC1`, for which the activity change, negative = inhibition (at 120 µM (top of the series)) was -9.07% (inactive).

As for `O=C(C1CCCC1)N1C[C@@H]2N[C@H](C1)C2c1ccc(-c2ccccc2F)cc1` (stereo partly specified), where the note is “at 60 µM (top of the series)”, the activity change, negative = inhibition was 51.8% (inactive). Same read-out and setting: in the case of `CN(C)CC(=O)N1C[C@@H]2N[C@H](C1)C2c1ccc(/C=C/c2ccccc2)cc1` (stereo partly specified) it was 46.6% (inactive). `CN(C)C(=O)c1cccc(-c2ccc([C@@H]3[C@H]4CN(C(=O)C5CCCCC5)CC(=O)N4[C@H]3CO)cc2)c1`: for the setting “at 120 µM (top of the series)”, the activity change, negative = inhibition was -5.65% (inactive). Turning to `N#C[C@@H]1[C@@H](c2ccccc2-c2ccc(F)cc2)[C@H](CO)N1C(=O)NC1CCCC1`, the activity change, negative = inhibition (at 135 µM (top of the series)) is 14% (inactive).

Take `C/C=C/c1ccc([C@H]2[C@@H](CO)N(C(=O)CC)[C@@H]2CNC(=O)CC)cc1`: the activity change, negative = inhibition (at 135 µM (top of the series)) is -8.82% (inactive).

For `COc1ccc2c3c(n(C)c2c1)[C@H](CO)N(C)CC31CN(C(=O)NC(C)C)C1`, under “at 120 µM (top of the series)”, the activity change, negative = inhibition is 0.365% (inactive). For the compound `CN(C)C(=O)c1cccc(-c2ccc(C3[C@H]4CNC[C@@H]3N4S(=O)(=O)c3ccc(Cl)cc3)cc2)c1` (stereo partly specified), where the note is “at 135 µM (top of the series)”, the activity change, negative = inhibition is 10.5% (inactive). Consider `O=C(Cc1ccccc1)N1CC[C@H]2[C@H](CO)Nc3ccc(C4=CCCCC4)cc3[C@H]21`, for which the activity change, negative = inhibition (at 135 µM (top of the series)) was 25.9% (inactive). On to `Cc1ccccc1-c1ccc([C@@H]2[C@@H](CO)N3CCCCN(S(=O)(=O)c4ccc(F)cc4)C[C@H]23)cc1`, for which the activity change, negative = inhibition (at 120 µM (top of the series)) was -1.33% (inactive). Same read-out and setting: in the case of `COc1ccc(S(=O)(=O)N2CCCCN3[C@H](CO)[C@@H](c4ccc(C#CC(C)C)cc4)[C@H]3C2)cc1` it was 39.3% (inactive); in that of `CN(C)C(=O)C[C@@H]1CC[C@@H]2[C@@H](COc3ccc(NC(=O)C4CCC4)cc3C(=O)N2C)O1`, 0.255% (inactive); in that of `CC(=O)NC[C@@H]1[C@H](c2ccc(-c3cccc(F)c3)cc2)[C@@H](CO)N1C(C)=O`, -11.6% (inactive). Still for that read-out and setting: in the case of `CCCNC(=O)N1[C@H](C#N)[C@@H](c2ccccc2-c2ccc(C)cc2)[C@@H]1CO` it was 17% (inactive).

On to `CC(=O)NC[C@H]1[C@@H](c2ccc(-c3cccc(F)c3)cc2)[C@@H](CO)N1C(C)=O`, for which, where the note is “at 135 µM (top of the series)”, the activity change, negative = inhibition is -7.05% (inactive).

As to `CC(=O)NC[C@H]1[C@H](c2ccc(-c3cccc(F)c3)cc2)[C@@H](CO)N1C(C)=O`, the activity change, negative = inhibition (at 120 µM (top of the series)) was -18.5% (inactive). For `CC(=O)N(C)C[C@H]1[C@@H](c2ccc(-c3ccccc3F)cc2)[C@@H](CO)N1C(C)=O`, the activity change, negative = inhibition (at 120 µM (top of the series)) was -10.3% (inactive). Same read-out and setting: in the case of `N#C[C@H]1[C@@H](c2ccccc2-c2ccccc2)[C@H](CO)N1C(=O)Cc1ccccc1` it was 32.6% (inactive); in that of `O=S(=O)(c1ccccc1)N1CCCCN2[C@H](CO)[C@H](c3ccc(C#Cc4ccccc4)cc3)[C@H]2C1`, 27.6% (inactive).

Consider `C/C=C/c1ccc([C@@H]2[C@H](CO)N(C(=O)CC)[C@H]2CNC(=O)CC)cc1`, for which the activity change, negative = inhibition (at 120 µM (top of the series)) is -7.3% (inactive).

Take `Cc1ccccc1S(=O)(=O)N1CC[C@@H]2[C@@H](CO)Nc3ccc(-c4ccc(F)cc4)cc3[C@@H]21`: the activity change, negative = inhibition (at 120 µM (top of the series)) was 46.1% (inactive). Take `O=C(Nc1ccc(F)cc1)N1CCCCN2[C@H](CO)[C@@H](c3ccc(-c4cccc(F)c4)cc3)[C@@H]2C1`: the activity change, negative = inhibition (at 120 µM (top of the series)) is 48.5% (inactive).

Take `C/C=C/c1ccc([C@H]2[C@@H](CO)N(C(=O)CC)[C@H]2CNC(=O)CC)cc1`: the activity change, negative = inhibition (at 135 µM (top of the series)) was -4.24% (inactive). On to `Cc1cccc(-c2ccc(C3[C@@H]4CN(C(=O)C5CCC5)C[C@H]3N4)cc2)c1` (stereo partly specified), for which the activity change, negative = inhibition (at 60 µM (top of the series)) was 39.3% (inactive). Take `O=C(C1CCCC1)N1C[C@@H]2N[C@H](C1)C2c1ccc(-c2cccc(F)c2)cc1` (stereo partly specified): where the note is “at 60 µM (top of the series)”, the activity change, negative = inhibition is 46.7% (inactive).
